Test [1] relates to A549 human lung adenocarcinoma cells. Conditions: 72 h.
Another test deals with HCT116 cells. As to the kind of experiment: Cell viability, Alamar Blue assay. Type of test: cell-based, human. The method, then: (§1) Figure 1 Cytotoxicity of synthetic and Pra-containing coibamides. (A) Structure of CbA. (B) Human MDA-MB-231 breast cancer cells were treated with increasing concentrations of synthetic CbA or vehicle (0.1% DMSO) and cell viability assessed at 72 h by an MTS end-point assay. (C) Structure of Photo-CbA. (D) Human HCT116 cells were treated with increasing concentrations of synthetic or photo-CbA in 0.1% DMSO, and cell viability assessed at 72 h by Alamar Blue assay. TEXT PRINTED IN THE PICTURE: (B) CbA: MDA-MB-231 cell line: IC50(nM): 1.6 | (D) CbA: HCT 116 cell line: IC50(nM): 29.2 | (D) Photo-CbA: HCT 116 cell line: IC50(nM): 6.5
(§2) Figure 5 CbA mode of inhibition is specific compared to known Sec61 inhibitors. (A) Cell viability was measured by Alamar Blue assay (mean ± SD, n = 4, all cell lines assayed simultaneously) for HCT-116 cell lines isolated on the basis of CbA resistance in the presence of concentration series of indicated compounds. (B) Cell viability was measured by Alamar Blue assay (mean ± SD, n = 4, all cell lines assayed simultaneously) for HEK293FRT cells stably expressing Sec61α mutants in the presence of concentration series of indicated compounds. (C) Comparison of published NCI60 data for CbA,[3] AprA,[11] and IpoF.[33] The heat map was derived by plotting each GI50 value divided by the median GI50 for that compound. X indicates a cell line that was not tested. Closed arrowhead indicates cell lines with most notable differences across the three compounds. […]
(§3) A431, HEK293T, and HEK293FRT cells were cultured in DMEM supplemented with 10% FBS. […] Viability was estimated by the addition of Alamar Blue (Life Technologies) and measuring fluorescence after a further 4 h. […]
For orientation: Resazurin is reduced to fluorescent resorufin, in cell work by metabolically active cells.

In test [2] the target is HEK293FRT cells stably expressing Sec61α WT (Homo sapiens, UniProt P61619). Briefly: Cell viability, Alamar Blue, Sec61α engineered lines. Format: cell-based. The following applies: 72 h, n = 4 (Figure 5B). As to the method: as §2, §3
For test [3], the system named is HCT116 resistant line 100-4. As to the kind of experiment: Cell viability, Alamar Blue, CbA-resistant line. Type of test: cell-based, human. Conditions: 72 h, n = 4 (Figure 5A), read-out: HCT116 Resistant lines IC50 (100-4). The method, then:
(§4) Figure 5 CbA mode of inhibition is specific compared to known Sec61 inhibitors. (A) Cell viability was measured by Alamar Blue assay (mean ± SD, n = 4, all cell lines assayed simultaneously) for HCT-116 cell lines isolated on the basis of CbA resistance in the presence of concentration series of indicated compounds. (B) Cell viability was measured by Alamar Blue assay (mean ± SD, n = 4, all cell lines assayed simultaneously) for HEK293FRT cells stably expressing Sec61α mutants in the presence of concentration series of indicated compounds. (C) Comparison of published NCI60 data for CbA,[3] AprA,[11] and IpoF.[33] The heat map was derived by plotting each GI50 value divided by the median GI50 for that compound. X indicates a cell line that was not tested. Closed arrowhead indicates cell lines with most notable differences across the three compounds. TEXT PRINTED IN THE PICTURE: (A) CbA: HCT116 Resistant lines IC50(nM): 24 (WT); HCT116 Resistant lines IC50(nM): 6500 (100-1); HCT116 Resistant lines IC50(nM): 7500 (100-2); HCT116 Resistant lines IC50(nM): 5800 (100-3); HCT116 Resistant lines IC50(nM): 7800 (100-4); HCT116 Resistant lines IC50(nM): 3800 (100-5) | (A) AprA: HCT116 Resistant lines IC50(nM): 80 (WT); HCT116 Resistant lines IC50(nM): >10000 (100-1); HCT116 Resistant lines IC50(nM): >10000 (100-2); HCT116 Resistant lines IC50(nM): >10000 (100-3); HCT116 Resistant lines IC50(nM): >10000 (100-4); HCT116 Resistant lines IC50(nM): >10000 (100-5) | (B) CbA: Sec61α engineered lines IC50(nM): 12 (WT); Sec61α engineered lines IC50(nM): 83 (R66I); Sec61α engineered lines IC50(nM): 20 (T86M); Sec61α engineered lines IC50(nM): 81 (S82P) | (B) AprA: Sec61α engineered lines IC50(nM): 24 (WT); Sec61α engineered lines IC50(nM): >10000 (R66I); Sec61α engineered lines IC50(nM): 2500 (T86M); Sec61α engineered lines IC50(nM): 4700 (S82P)
(§5) A431, HEK293T, and HEK293FRT cells were cultured in DMEM supplemented with 10% FBS. HCT-116 cells were cultured in McCoy’s 5A media supplemented with 10% FBS. U87-MG cells were cultured in Minimum Essential Media (MEM) with 10% FBS, L-glutamine (2 mM), and 1% penicillin and streptomycin. MDA-MB-231 cells were cultured in MEM with Earl’s salts plus 1% penicillin/streptomycin and 10% FBS. All cell lines were incubated at 37 °C under 5% CO2. The activity of synthetic coibamide and photoaffinity analogues was tested in MDA-MB-231 and A549 cells after 72 h by MTS assay. All other cell viability assays were performed by seeding PerkinElmer Viewplate-96 plates at a density of 2.5 × 10^3 cells per well. Cells were allowed 24 h to adhere and then treated with indicated concentrations of inhibitors or vehicle (0.1% DMSO) for a further 72 h. Viability was estimated by the addition of Alamar Blue (Life Technologies) and measuring fluorescence after a further 4 h. Pulse-labeling experiments were performed by seeding six-well plates with 5 × 10^5 cells per well and allowing 24 h for cells to adhere. Cells were washed twice with PBS, then exchanged into Met-Cys free media with indicated concentrations of inhibitors for 30 min. 100 μCi of PerkinElmer EXPRE^35S^35S Protein Labeling Mix was then added per well. Media wer collected, and the cells were harvested by scraping them into ice cold PBS after 30 min. Total protein was acquired by RIPA extraction from the cell pellet. Glycosylated protein was acquired by Concanavalin A purification, and secreted protein was acquired by TCA precipitation of the media. […]

Test [4] deals with HCT116 resistant line 100-1. Briefly: Cell viability, Alamar Blue, CbA-resistant line. Format: cell-based, human. The following applies: 72 h, n = 4 (Figure 5A), read-out: HCT116 Resistant lines IC50 (100-1). As to the method:
as §4, §5

Test [5] concerns HCT116 resistant line 100-2. Briefly: Cell viability, Alamar Blue, CbA-resistant line. Type of test: cell-based, human. The following applies: 72 h, n = 4 (Figure 5A), read-out: HCT116 Resistant lines IC50 (100-2). As to the method: as §4, §5
Test [6] has as its system HCT116 resistant line 100-5. Briefly: Cell viability, Alamar Blue, CbA-resistant line. Format: cell-based, human. The following applies: 72 h, n = 4 (Figure 5A), read-out: HCT116 Resistant lines IC50 (100-5). The method, then: as §4, §5
In test [7] the test system is HCT116 resistant line 100-3. Briefly: Cell viability, Alamar Blue, CbA-resistant line. Type of test: cell-based, human. The following applies: 72 h, n = 4 (Figure 5A), read-out: HCT116 Resistant lines IC50 (100-3). The method, then: as §4, §5
Test [8] has as its system MDA-MB-231 breast cancer cells. As to the kind of experiment: Cell viability, MTS end-point assay. Format: cell-based, human. The following applies: synthetic CbA, 72 h, vehicle 0.1% DMSO. The method, then: as §1
A431, HEK293T, and HEK293FRT cells were cultured in DMEM supplemented with 10% FBS. HCT-116 cells were cultured in McCoy’s 5A media supplemented with 10% FBS. U87-MG cells were cultured in Minimum Essential Media (MEM) with 10% FBS, L-glutamine (2 mM), and 1% penicillin and streptomycin. MDA-MB-231 cells were cultured in MEM with Earl’s salts plus 1% penicillin/streptomycin and 10% FBS. All cell lines were incubated at 37 °C under 5% CO2. The activity of synthetic coibamide and photoaffinity analogues was tested in MDA-MB-231 and A549 cells after 72 h by MTS assay. […] Viability was estimated by the addition of Alamar Blue (Life Technologies) and measuring fluorescence after a further 4 h. […]
(In general: Tetrazolium dyes change colour on reduction, which living cells bring about.)

For orientation: IC50 means the point on the concentration scale where inhibition reaches its midpoint.

Molecules are shown by their SMILES. Read-outs that look alike come from different tables or passages of the source. Bridge positions count the residues as written; N and C are the ends. Square brackets hold non-standard residues; d marks the D form. Peptide text beside a SMILES is read from it. * marks the point of attachment. NMe2Val = CC(C)[C@@H](C(=O)*)N(C)C; NMeI = CC[C@H](C)[C@H](NC)C(=O)O; NMeT = CN[C@H](C(=O)O)[C@@H](C)O; NMeL = CN[C@@H](CC(C)C)C(=O)O; dHiv = CC(C)[C@@H](O)C(=O)O; NMeS = CN[C@@H](CO)C(=O)O; dNMeA = CN[C@H](C)C(=O)O

Chain of HEK293FRT cells stably expressing Sec61α WT (P61619 whole entry): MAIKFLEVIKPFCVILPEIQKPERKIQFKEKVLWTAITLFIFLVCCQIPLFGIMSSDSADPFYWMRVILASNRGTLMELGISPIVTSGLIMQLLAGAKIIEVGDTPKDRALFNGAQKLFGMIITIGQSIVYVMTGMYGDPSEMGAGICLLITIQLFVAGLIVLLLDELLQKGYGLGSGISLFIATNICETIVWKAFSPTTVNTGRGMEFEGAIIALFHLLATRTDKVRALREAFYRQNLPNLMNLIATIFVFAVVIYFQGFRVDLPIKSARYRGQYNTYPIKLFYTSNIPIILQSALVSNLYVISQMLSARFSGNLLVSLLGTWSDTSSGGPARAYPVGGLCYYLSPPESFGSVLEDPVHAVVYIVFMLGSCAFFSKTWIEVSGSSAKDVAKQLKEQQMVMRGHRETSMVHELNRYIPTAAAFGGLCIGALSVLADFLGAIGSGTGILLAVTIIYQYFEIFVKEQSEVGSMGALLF

In the case of `CC[C@H](C)[C@H]1C(=O)N[C@@H](C)C(=O)N(C)[C@@H](CC(C)C)C(=O)N[C@@H](Cc2ccc(OC)cc2)C(=O)N(C)[C@H](C)C(=O)O[C@H](C)[C@H](N(C)C(=O)[C@H](CC(C)C)N(C)C(=O)[C@H](COC)N(C)C(=O)[C@H](OC(=O)[C@H](C(C)C)N(C)C)C(C)C)C(=O)N(C)[C@@H](COC)C(=O)N1C` [CbA, Coibamide A] (NMe2Val-[dHiv][NMeS](Me)[NMeL][NMeT][NMeS](Me)[NMeI]A[NMeL]Y(Me)[dNMeA]; ester 4-C), the IC50 in test [1] was determined as 2.1 ± 0.7 nM; with HCT116 cells (HCT116, 72 h, 0.1% DMSO (Figure 1D), read-out: IC50), 29.2 nM; with HCT116 cells (HCT116 WT, 72 h, mean ± SD, n = 4 (Figure 5A), read-out: HCT116 Resistant lines IC50 (WT)), 24 nM; in [2], 12 nM; in test [3] it was 7800 nM; in [4], 6500 nM. For the same compound, the IC50 amounted to 7500 nM in test [5], 3800 nM in test [6], 5800 nM in test [7] and 1.6 nM in test [8].

Source of the values: paper PMC7497630, “Coibamide A Targets Sec61 to Prevent Biogenesis of Secretory and Membrane Proteins” (ACS Chemical Biology, 2020).
